Here are results for nine compounds from US5736533A, “Bacterial inhibition with an oligosaccharide compound” (Neose Technologies, Inc., priority 1995, dated 1998).

One assay relates to S. pneumoniae. The assay can be described thus: inhibition of adherence of S. pneumoniae to respiratory epithelial cells. The assay is classed as cell-based. The settings on record: Streptococcus pneumoniae.
Assay [1] concerns H. influenzae (strain 46519). The assay can be described thus: inhibition of adherence of H. influenzae (strain 46519) to epithelial cells. Type of assay: cell-based. The settings on record: Haemophilus influenzae, Epithelial cell, read-out: IC50 [mean (SD)]. The text has this: (§1) A method similar to that of Rostand, K. and Esko, (1993) J. Biol. Chem. 268 pp 24053-3, which studied the binding of radiolabelled P. aeruginosa to CHO cells was used to test for the binding inhibition of oligosaccharide compounds. For the studies described herein, S. pneumoniae (strains R-6, P70, and other clinical respiratory isolates) were labelled by culture in lysine-deficient tryptic soy broth containing ^3 H-lysine. The tryptic soy broth was made deficient in lysine by pre-treating it with lysine decarboxylase from E. coli. The bacteria were cultured for 4-5 hours, at which point the culture was in exponential growth. The bacteria were harvested and washed in Leibovitz L-15 Medium supplemented with 0.2% low-endotoxin bovine serum albumin. The bacteria were diluted to approximately 3×10^8 /mL, and then mixed 1:1 with either L-15-BSA or with various compounds to be tested. The bacterial mixtures were incubated at room temperature, with gentle agitation on an orbital shaker. After 10-15 min, samples of the bacterial mixtures were transferred to the surface of a confluent monolayer of cultured epithelial cells in a 96-well polystyrene plate. The cells most commonly used were the Wong-Kilbourne derivative of Chang conjunctiva. The human nasopharyngeal cell line Detroit 562, and the human lung cell line A549 were also used. The bacteria were incubated with the cells for 30 min with gentle agitation, at room temperature. The unbound bacteria were washed away with PBS containing 0.2% bovine serum albumin. Scintillant solution was added to the wells, and the plate was put in a microplate scintillation counter for quantitation of bound bacteria.
(§2) Adhesion of H. influenzae to epithelial cells was performed with the same protocol with the following modifications: The bacteria were cultured overnight in lysine-deficient Haemophilus test media. The bacteria were incubated with the cells at a concentration near 10^7 /mL for 60 min.
(§3) Using the testing protocol described in Example 2, four strains of bacteria were tested for binding inhibition by different oligosaccharide compounds.

The test system of assay [2] is H. influenzae (strain 39689). The assay can be described thus: inhibition of adherence of H. influenzae (strain 39689) to epithelial cells. The settings on record: Haemophilus influenzae, Epithelial cell, read-out: IC50 [mean (SD)]. The assay is classed as cell-based.
Text: as §1, §2, §3

The test system of assay [3] is Burkholderia (Pseudomonas) cepacia. The assay can be described thus: inhibition of adherence of Burkholderia (Pseudomonas) cepacia to respiratory epithelial cells. Type of assay: cell-based.
Text: as §1, §3

The test system of a further assay is Escherichia coli C600. The settings on record: Rosenstein et al (1992); cited from earlier work.
For assay [4], the system named is S. pneumoniae strain AII. The assay can be described thus: treatment of rabbits pre-colonized with S. pneumoniae with adherence-reversing oligosaccharide. The assay is classed as in vivo, New Zealand white rabbits. As for the experimental part:
S. pneumonaie strain AII were administered to New Zealand white rabbits by tracheal instillation. All rabbits were sick at 24 h, with indications of pneumonia. After 24 h oligosaccharide (LNnT) or control (saline) was administered intratracheally. After an additional 24 h lung lavage colonies were counted as described in Example 3.

Assay [5] deals with S. pneumoniae strain AII. The assay can be described thus: colonization of rabbit lungs with S. pneumoniae in the presence of an adherence-inhibitory oligosaccharide. The assay is classed as in vivo, New Zealand white rabbits. The settings on record: 100 μM. The text has this: Rabbits S. pneumoniae strain AII were mixed with oligosacchardies and administered to New Zealand white rabbits by tracheal instillation, and lung lavage colonies were counted at the indicated time by the method described in Saukkonen, et al., 1991, J. Exp. Med. 173:1143-9.

In assay [6] the test system is Pseudomonas aeruginosa M35. Particulars: Rosenstein et al (1992); isolate from cystic fibrosis patients; cited from earlier work.
Another assay has as its system Pseudomonas aeruginosa. The settings on record: Ramphal et al (1991); cited from earlier work.
Assay [7] relates to immunoglobulin E-binding protein. The settings on record: Feizi et al Biochemistry 1994; cited from earlier work.
In a further assay the test system is Escherichia coli. Particulars: Ginsburg et al U.S. Pat. No. 5,225,330; cited from earlier work.
The subject of a further assay is Streptococcus pneumoniae. Particulars: Andersson et al J. Exp. Med. (1983); cited from earlier work.
The subject of a further assay is Mycoplasma pneumoniae. Particulars: Ginsburg et al U.S. Pat. No. 5,225,330, Table I; cited from earlier work.
[8] abbreviates: A549, read-out: IC50 [mean (SD)], Monovalent, A549 human lung carcinoma, activated with IL1.
Setting [9] is: Epithelial cell, read-out: IC50 [mean (SD)], Monovalent, Chang human conjunctival carcinoma.
Setting [10] is: HUVEC, read-out: IC50 [mean (SD)], Monovalent, HUVEC activated with TNFα or thrombin.
[11] abbreviates: Calu-3, read-out: IC50 [mean (SD)], Monovalent, CaLu-3 human lung carcinoma.
[12] abbreviates: Epithelial cell, read-out: IC50 [mean (SD)], Monovalent, Det-562 human nasopharyngeal carcinoma.
Where [13] appears, read: Burkholderia, Calu 3 cells, read-out: IC50 [mean (SD)].
The mark [14] stands for this setting: experiment 1, inoculum 5 × 10^5 bacteria, intratracheal, 4 day lavage.
[15] abbreviates: experiment 2, inoculum 5 × 10^5 bacteria, intratracheal, 4 day lavage.
Setting [16] is: experiment 3, inoculum 5 × 10^7 bacteria, 24 h lavage.

The pIC50 is the IC50 on a negative log10 scale, so that one unit is a factor of ten.

pIC50: −log10 of the molar value. Several values for one entry are separate records, joined by “and”; a condition that tells them apart may be missing. Equal values may be shown once. Read-outs that look alike come from different tables or passages of the source.

Regarding `CC(=O)N[C@H]1[C@H](O[C@H]2[C@@H](O)[C@@H](CO)O[C@@H](O[C@H]3[C@H](O)[C@@H](O)C(O)O[C@@H]3CO)[C@@H]2O)O[C@H](CO)[C@H](O)[C@@H]1O` (stereo partly drawn) [Ga1NAc β1-3 Ga1β1-4 Glc, GalNAcβ1-3-Galβ1-4-Glc], the pIC50 in the assay with S. pneumoniae (setting [8]) was 4.07; in the assay with S. pneumoniae (setting [9]), under 2.22; in the assay on S. pneumoniae (setting [10]), 4.15; in assay [1], 2.38; in assay [2], 1.97.

As for `CC(=O)N[C@H]1[C@H](O[C@H]2[C@@H](O)[C@@H](CO)O[C@@H](O[C@H]3[C@H](O)[C@@H](O)C(O)O[C@@H]3CO)[C@@H]2O)O[C@H](CO)[C@@H](O[C@@H]2O[C@H](CO)[C@H](O)[C@H](O[C@@H]3O[C@H](CO)[C@H](O)[C@H](O)[C@H]3NC(C)=O)[C@H]2O)[C@@H]1O` (stereo partly drawn) [Ga1NAc β1-3 LNnT, GalNAcβ1-3-Galβ1-4-GlcNAcβ1-3-Galβ1-4-Glc], the pIC50 in the assay on S. pneumoniae (setting [8]) is 4.10; in the assay on S. pneumoniae (setting [10]), 4.12; in assay [1], 2.11; in assay [2], under 2.00.

Regarding `CC(=O)N[C@H]1[C@H](O[C@H]2[C@@H](O)[C@@H](CO)O[C@@H](O[C@H]3[C@H](O)[C@@H](O)C(O)O[C@@H]3CO)[C@@H]2O)O[C@H](CO)[C@@H](O[C@@H]2O[C@H](CO)[C@H](O)[C@H](O)[C@H]2O)[C@@H]1O` (stereo partly drawn) [LNnT, Galβ1-4-GlcNAcβ1-3-Galβ1-4-Glc], the pIC50 with S. pneumoniae (setting [8]) is 4.02; in the assay on S. pneumoniae (setting [11]), under 1.80; in the assay with S. pneumoniae (setting [9]) it was 2.10; in the assay on S. pneumoniae (setting [12]) it was 2.15; in the assay on S. pneumoniae (setting [10]), 4.28; in assay [3] (setting [13]), 2.25. For the same compound, the pIC50 in [1] and in assay [2] was under 1.85 each time. For the same compound, the binding activity result (in the assay with Escherichia coli C600; in [6]) was “high binding activity” throughout. The “condition of treated rabbits” value in the assay on S. pneumoniae strain AII [4] (at 48 h) is given as “healthy”. Also, the “CFU (lung lavage)” value in the assay with S. pneumoniae strain AII [4] (inoculum 10^5 bacteria, 100 μM intratracheal, lavage 24 h after oligosaccharide treatment and 48 h after bacterial instillation) was 0 CFU; with S. pneumoniae strain AII [5] (experiment 1, inoculum 5 × 10^5 bacteria, intratracheal, 24 h lavage, 2 rabbits/group, one value per rabbit), 8.7 × 10^2 CFU (colonies/ml lavage fluid) and 4.7 × 10^3 CFU (colonies/ml lavage fluid); in the assay with S. pneumoniae strain AII [5] (setting [14]), < 10 CFU (colonies/ml lavage fluid); in the assay with S. pneumoniae strain AII [5] (setting [15]), 0 CFU (colonies/ml lavage fluid); in the assay with S. pneumoniae strain AII [5] (setting [16]), 0 CFU (colonies/ml lavage fluid); with S. pneumoniae strain AII [5] (experiment 4, inoculum 10^5 bacteria, intratracheal, 24 h lavage) it was 1.1 × 10^3 CFU (colonies/ml lavage fluid) and 1.4 × 10^3 CFU (colonies/ml lavage fluid).

Take `CC(=O)N[C@H]1[C@H](O[C@H]2[C@@H](O)[C@@H](CO)O[C@@H](O[C@H]3[C@H](O)[C@@H](O)C(O)O[C@@H]3CO)[C@@H]2O)O[C@H](CO)[C@@H](O[C@@H]2O[C@H](CO[C@]3(C(=O)O)C[C@H](O)[C@@H](NC(C)=O)[C@H]([C@H](O)[C@H](O)CO)O3)[C@H](O)[C@H](O)[C@H]2O)[C@@H]1O` (stereo partly drawn) [LSTc, NeuAcα2-6-Galβ1-4-GlcNAcβ1-3-Galβ1-4-Glc]: the pIC50 with S. pneumoniae (A549, first table, A549 lung carcinoma, activated with IL1) was 4.00; with S. pneumoniae (setting [8]) it was 4.16; in the assay with S. pneumoniae (Calu-3, first table, CaLu-3 lung carcinoma), 2.36; in the assay on S. pneumoniae (setting [11]) it was 2.36; in the assay on S. pneumoniae (Epithelial cell, first table, 1° lung: rat tracheal primary epithelium), 3.40; in the assay with S. pneumoniae (Epithelial cell, first table, CHANG cells), 2.82. Besides, the pIC50 was 2.27 in the assay with S. pneumoniae (Epithelial cell, first table, Det-562 nasopharyngeal carcinoma); 3.60 with S. pneumoniae (Epithelial cell, read-out: IC50 [mean (SD)], Monovalent, 1° lung: rat trachea epithelial monolayer (primary)); 2.85 in the assay on S. pneumoniae (setting [9]); 2.40 in the assay on S. pneumoniae (setting [12]); 2.40 with S. pneumoniae (FaDu, first table, FaDu nasopharyngeal carcinoma); 2.35 in the assay with S. pneumoniae (FaDu, read-out: IC50 [mean (SD)], Monovalent, FaDu human nasopharyngeal carcinoma). Moreover, the pIC50 in the assay with S. pneumoniae (HUVEC, first table, HUVEC activated with TNFα or thrombin) is 4.00; in the assay with S. pneumoniae (setting [10]) it was 4.16; in assay [3] (setting [13]), 3.00; in assay [3] (first table (P. cepacia), CaLu-3 lung carcinoma, read-out: IC50) it was 3.00; in assay [2] it was under 2.00. In addition, in the assay on Pseudomonas aeruginosa, the “activity in the direct adhesion assay” value was “no activity”. In addition, the binding activity entry (in the assay on Escherichia coli C600; in assay [6]) was “no activity” throughout. Besides, the “CFU (lung lavage)” value is on record as < 10 CFU (colonies/ml lavage fluid) in the assay with S. pneumoniae strain AII [5] (setting [14]), 0 CFU (colonies/ml lavage fluid) with S. pneumoniae strain AII [5] (setting [15]) and 0 CFU (colonies/ml lavage fluid) with S. pneumoniae strain AII [5] (setting [16]). The “binding by immunoglobulin E-binding protein” value in [7] was “not bound or is only negligibly bound”.

For `CC(=O)N[C@H]1[C@H](O[C@H]2[C@@H](O)[C@@H](CO)O[C@@H](O[C@H]3[C@H](O)[C@@H](O)C(O)O[C@@H]3CO)[C@@H]2O)O[C@H](CO)[C@@H](O[C@@H]2O[C@H](CO)[C@H](O)[C@H](O[C@]3(C(=O)O)C[C@H](O)[C@@H](NC(C)=O)[C@H]([C@H](O)[C@H](O)CO)O3)[C@H]2O)[C@@H]1O` (stereo partly drawn) [LSTd, NeuAcα2-3-Galβ1-4-GlcNAcβ1-3-Galβ1-4-Glc], the pIC50 in the assay on S. pneumoniae (setting [8]) is 4.02; in the assay with S. pneumoniae (setting [9]), 3.22; in the assay on S. pneumoniae (setting [10]), 4.05.

For `CC(=O)N[C@H]1[C@H](O[C@H]2[C@@H](O)[C@@H](CO)O[C@@H](O[C@H]3[C@H](O)[C@@H](O)C(O)O[C@@H]3CO)[C@@H]2O)O[C@H](CO)[C@@H](O)[C@@H]1O[C@@H]1O[C@H](CO)[C@H](O)[C@H](O[C@]2(C(=O)O)C[C@H](O)[C@@H](NC(C)=O)[C@H]([C@H](O)[C@H](O)CO)O2)[C@H]1O` (stereo partly drawn) [NeuAcα2-3-Galβ1-3-GlcNAcβ1-3-Galβ1-4-Glc, reference compound], the “binding by immunoglobulin E-binding protein” value in [7] is recorded as “strongly bound”.

For the compound N-glycolylsialoparagloboside, the inhibition entry in the assay with Escherichia coli was “inhibition”.

For the compound “NeuAcα2-3Galβ1-4-GlcNAcβ1-3-Galβ1-4-Glc--Cer [compound 3]”, the binding inhibition result in the assay with Streptococcus pneumoniae was “no effect”.

With sialylparagoboside, in the assay on Mycoplasma pneumoniae, the binding inhibition result is recorded as “no activity”.
